We go through 15 compounds from PubChem BioAssay (NCI).

Assay in all cases: DTP human tumour cell line panel, 48 h
Test [1] has as its system BT-549 breast.
Test [2] relates to HCT-116 colon.
The subject of test [3] is MDA-MB-231 breast.
The subject of test [4] is NCI-H23 lung.
The test system of test [5] is SK-MEL-28 melanoma.
The subject of test [6] is HT29 colon.
Test [7] concerns ACHN renal.
Test [8] has as its system LOX IMVI melanoma.
Test [9] has as its system RXF 393 renal.

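Briefly, cells in 96-well plates were exposed to five compound concentrations for 48 h, and endpoints were estimated by linear interpolation. GI50: concentration for 50% inhibition of growth. The concentration for full growth arrest is given as TGI.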 Where a SMILES comes first, the peptide text is derived from it. The star is where a group is joined. Palmitoyl = CCCCCCCCCCCCCCCC(=O)*

By TGI is commonly meant the concentration giving total growth inhibition. The low end stands for greater sensitivity of the cells, the high end for lower sensitivity of the cells. For `C=C(CCC(C(=O)O)C1CCC2(C)C3=C(CCC12C)C1(C)CCC(O)C(C)(C)C1CC3)C(C)C` (centres undefined), the concentration for total growth inhibition (TGI) in test [1], in test [2], in [3], in [4], in test [5] and in test [6] was more than 100 µM each time. For the same compound, the total growth inhibition concentration (TGI) in [7] was more than 100 µM; in test [8] it was 89 µM.

As a reminder, the GI50 is the concentration that inhibits growth by half. For the compound `CCCCCCCCCCCCCCCC(=O)NC(CCCCN)C(=O)NCC(=O)NC(Cc1ccccc1)C(=O)N1CCCC1C(=O)NC(CO)C(=O)NC(Cc1ccc(O)cc1)C(=O)NC(CCCCN)C(=O)NC(CC(C)C)C(=O)NC(CCCN=C(N)N)C(=O)N1CCCC1C(=O)NCC(N)=O` (centres undefined) (Palmitoyl-KGFPSYKLRPG-NH2; configuration not given here), the GI50 in [1] was 24.1 µM; in test [2], 15.3 µM; in test [3], 17.3 µM; in [4], 23.9 µM; in [5], 28.6 µM; in test [6], 17 µM. Besides, the GI50 in [9] was 27.6 µM. For the same compound, the total growth inhibition concentration (TGI) amounted to 50.4 µM in [1]; 31.8 µM in test [2]; 33.2 µM in [3]; 55.6 µM in test [4]; 68.2 µM in test [5]; 30.7 µM in test [6]. The TGI in [9] worked out at 69.4 µM.

Consider `COC(=O)CCc1ccc2c(c1)CC1(C2)Cc2ccc(CCC(=O)OC)cc2C1`, for which the TGI in test [2] is more than 100 µM; in test [3], more than 100 µM; in [4], more than 100 µM; in test [6] it was more than 100 µM; in [7], more than 100 µM; in test [8], 97.1 µM. Moreover, in [9], the TGI was more than 100 µM.

Turning to `COC1(OC)N=C(N)C2(C#N)/C(=N/N(C)C)CC(C)C12C#N` (centres undefined), the total growth inhibition concentration (TGI) in test [2], in [3], in [4], in test [5], in [6] and in test [7] was more than 100 µM each time. The TGI in test [8] and in [9] was more than 100 µM each time.

Take `COc1cc(CC(=O)c2ccc3c(c2)OCO3)cc(OC)c1OC`: the concentration for total growth inhibition (TGI) in [2], in test [4], in [5], in test [6], in test [7] and in test [9] was more than 100 µM each time.

Turning to `COc1ccc([C@@]23CCC(=O)C[C@@H]2N(C)CC3)cc1OC`, the concentration for total growth inhibition (TGI) in test [3], in [4], in test [5], in test [6], in test [7] and in [8] was more than 100 µM each time. The total growth inhibition concentration (TGI) in test [9] was more than 100 µM.

For `CSc1nc(Br)nc2c1ncn2C1CC(Oc2ccc(C)cc2)C(COc2ccc(C)cc2)O1` (centres undefined), the concentration for total growth inhibition (TGI) in test [1], in test [2], in test [3], in test [4], in test [5] and in test [6] was more than 100 µM in each case. The concentration for total growth inhibition (TGI) in [7] and in test [8] was more than 100 µM throughout.

On to `COc1ccc(C=O)cc1Oc1ccc(C[C@H]2c3c(cc(OC)c4c3Oc3cc5c(cc3O4)CCN(C)C5=O)CCN2C)cc1`, for which the TGI in test [2] is 15 µM; in [3] it was 14.6 µM; in test [4], 16 µM; in [5] it was 22.7 µM; in test [6], 14.4 µM; in [7], 18.4 µM. For the same compound, the total growth inhibition concentration (TGI) in [8] came to 21.8 µM; in test [9], 10.8 µM.

In the case of `O=C(O)CCCc1nc2c(n1-c1ccccc1)C(=O)c1ccccc1C2=O`, the TGI in test [2], in test [3], in test [4], in test [5], in test [7] and in test [8] was more than 100 µM each time.

For `CC(=O)OCC1OC(n2c3c(c(-c4ccco4)c(C#N)c2=S)CCCC3)C(OC(C)=O)C(OC(C)=O)C1OC(C)=O` (centres undefined), the total growth inhibition concentration (TGI) in [2], in [3], in test [4], in test [5], in test [6] and in [7] was more than 31.6 µM in each case. The same compound came in with a TGI in [8] of more than 31.6 µM.

Consider `Cc1cccc(N2CCN(S(=O)(=O)c3ccc(Cl)cc3)C2=N)c1C`, for which the total growth inhibition concentration (TGI) in [1], in test [2], in test [3], in test [4], in test [5] and in test [6] was more than 100 µM throughout. For the same compound, the total growth inhibition concentration (TGI) in test [7] and in [9] was more than 100 µM in each case.

Consider `CN(C)CCNC(=O)c1cccc2c(NC(CS)C(=O)O)c3ccccc3nc12` (centres undefined), for which the total growth inhibition concentration (TGI) in [1] is 45.6 µM; in [2] it was more than 100 µM; in [3], 23.6 µM; in test [4] it was 30.4 µM; in [5], 35.7 µM; in test [6] it was 52.3 µM. Also, the TGI in test [7] came to 59.8 µM; in test [8] it was 21.1 µM.

As for `COC(=O)C(Cc1ccccc1)NC(=O)CCCNC(=O)OCc1ccccc1` (centres undefined), the concentration for total growth inhibition (TGI) in test [1], in test [2], in [3], in test [4], in test [5] and in test [6] was more than 100 µM throughout. The total growth inhibition concentration (TGI) in [7] and in test [8] was more than 100 µM each time.

As to `CC(=O)Oc1ccc2c(c1)c1c(OC(C)=O)c3ccccc3c(OC(C)=O)c1n2Cc1cccc(C)c1`, the TGI in test [1], in [2], in test [3], in [4], in [5] and in [6] was more than 100 µM in each case. Besides, the TGI in test [7] and in test [9] was more than 100 µM throughout.

For the compound `COc1cc(/C=C2\C[C@H]3[C@@H]4CC=C5C[C@@H](N6CCCC6)CC[C@]5(C)[C@H]4CC[C@]3(C)[C@H]2OC(C)=O)cc(OC)c1OC`, the TGI in [1] worked out at 28.1 µM; in [2], 30.5 µM; in [3], 29.8 µM; in test [4], 28.5 µM; in [5], 34.1 µM; in test [6], 21.6 µM. Further, the TGI in test [7] worked out at 32.9 µM; in test [9], 27 µM.
